Experiments:
[1] = Pharmacokinetics of [3H]-AMTX-100 after multiple routes of administration; assay type: in vivo, rat; details: rat
Procedure: AMTX-100 was radiolabeled with 3H at lysine residues and injected into Sprague-Dawley rats in a single dose by seven different routes (intravenous, subcutaneous, topical [skin], intratracheal, intraduodenal, esophageal, and oral). The rats were evaluated at various time points, up to 120 hours, by: a) blood samples were taken for pharmacokinetics (PK) by cardiac puncture; b) rats were frozen and sectioned for QWBA and/or micro-auto-radiography and histology; and c) frozen sections were made and freeze dried and exposed to phosphor-storage imaging plates and tissue radioactivity in images was quantified as tissue: blood ratios.
For all PK studies, the following definitions were used: WB=whole blood; Plasma=whole blood depleted of red blood cells; WBCD=whole blood depleted of white blood cells in which the whole blood is passed over a Pall Acrodisc filter (about 60% efficient); WBCs=the cells which bind to, and are washed off, the Pall Acrodisc filter.

[2] = Tissue distribution of radioactivity by quantitative whole body autoradiography (QWBA) after single intravenous [3H]-AMTX-100; assay type: in vivo, rat
Procedure: The formulation was administered directly into a tail vein. The dose volume (2.5 mL/kg) was used to achieve a dose level of 5 mg/kg and radioactive dose levels of 100 μCi/kg (Phase 1) and 500 μCi/kg (Phase 2). The dose formulation was stirred continuously throughout the dosing procedure.
Quantitative Whole Body Autoradiography (QWBA). The frozen carcasses were subjected to QWBA. Sections were presented at up to five different levels of the rat body to include between 30 and 40 tissues (subject to presence of sufficient radioactivity).
The freeze-dried whole body autoradiography sections were exposed to phosphor-storage imaging plates and incubated at ambient temperature in the dark for seven days. Calibrated autoradiographic blood standards containing known amounts of radioactivity (nCi/g) were included in each exposure.
Distribution of radioactivity in tissues and [^3H]-blood standards (prepared and validated at Pharmaron UK Ltd.) was determined and quantified using a Fuji FLA-5100 fluorescent image analyzing system and associated Tina (version 2.09) and SeeScan (version 2.0) software. For each exposure, a standard curve was produced in SeeScan using the data from the autoradiographic blood standards from which tissue concentrations of radioactivity (μg equivalents/g) were determined.
A representative background radioactivity measurement for each exposure plate used was also taken. The number of measurements for each particular tissue was determined by the number of levels it appeared in. Multiple measurements were therefore performed for larger tissues that appeared in more than one level (e.g. liver), with only one measurement obtained for small tissues (e.g. thyroid gland). The limit of accurate quantification was considered to be the lowest [^3H]-blood standard visible.
Three of the carcasses obtained from the eight male Sprague Dawley rats subjected to whole blood collection and analysis after each receiving a single intravenous administration of [^3H]-AMTX-100, were selected for QWBA analysis at each of the following time points: 10 minutes and 2 and 12 hours post-dose.
Each carcass was snap frozen by immersion in a hexane/dry ice mixture immediately after collection and was then stored at approximately −20° C., pending analysis by QWBA.

[3] = single intravenous, 5 mg/kg, rat, 10 min
[4] = single intravenous, 5 mg/kg, rat, 2 hr

CSCC[C@@H]1NC(=O)[C@H](CC(C)C)NC(=O)[C@H](CCCCN)NC(=O)[C@H](CCC(N)=O)CC(=O)[C@H](CCCNC(=N)N)NC(=O)[C@H](CCCCN)NC(=O)[C@H](CCCNC(=N)N)NC(=O)[C@H](CCC(N)=O)NC(=O)[C@H](C(C)C)NC(=O)[C@@H](NC(=O)[C@@H]2CCCN2C(=O)[C@H](C)NC(=O)[C@H](CC(C)C)NC(=O)[C@H](CC(C)C)NC(=O)[C@H](C)NC(=O)[C@H](CC(C)C)NC(=O)[C@H](CC(C)C)NC(=O)[C@@H](NC(=O)[C@H](C)NC(=O)[C@@H]2CCCN2C(=O)[C@H](CC(C)C)NC(=O)[C@H](CC(C)C)NC(=O)[C@H](C)NC(=O)[C@@H](NC(=O)[C@H](C)NC(=O)[C@H](C)N)C(C)C)C(C)C)CSSC[C@@H](C(=O)O)NC(=O)[C@@H]2CCCN2C1=O [[^3H]-AMTX-100]
Specific target cells in blood [1]: WBCs and not RBCs are the specific target
Residence time in plasma ([1]; Sub-Q, single dose): > 672 h
Presence in tissue ([1]; after a single dose): found in tissue in which WBCs congregate, but not cardiac or skeletal muscle tissue
Entry into the bloodstream ([1]; all routes of administration): by all routes of administration makes its way into the bloodstream
Resistance to degradation ([1]; esophageal administration, L-amino acid version): resistant to degradation
Radioactivity localization in heart and other muscle cells ([2]; rats): lack of radioactivity localization in heart and other muscle cells
Organ localization of radioactivity ([2]; rats, spleen, lung, liver, lymph nodes, kidney, adrenal gland, bone marrow, pancreas, small intestine, etc.): localized to organs where immune cells are known to reside and traffic through
Concentration of radioactivity in Adrenal gland [2, 3]: 9.93 μg equivalents/g
Concentration of radioactivity in Blood: residual cardiac [2, 3]: 2.89 μg equivalents/g
Concentration of radioactivity in Bone [2, 3]: BLQ (Below lower limit of accurate quantification (<0.36 μg equivalents/g))
Concentration of radioactivity in Bone marror [2, 3]: 4.44 μg equivalents/g
Concentration of radioactivity in Brain [2, 3]: BLQ (Below lower limit of accurate quantification (<0.36 μg equivalents/g))
Concentration of radioactivity in Caecum contents [2, 3]: BLQ (Below lower limit of accurate quantification (<0.36 μg equivalents/g))
Concentration of radioactivity in Caecum mucosa [2, 3]: 0.82 μg equivalents/g
Concentration of radioactivity in Choroid plexus [2, 3]: 0.71 μg equivalents/g
Concentration of radioactivity in Epididymis [2, 3]: 0.44 μg equivalents/g
Concentration of radioactivity in Ex-orbital lachrymal gland [2, 3]: 0.71 μg equivalents/g
Concentration of radioactivity in Eye: lens [2, 3]: BLQ (Below lower limit of accurate quantification (<0.36 μg equivalents/g))
Concentration of radioactivity in Eye: whole [2, 3]: BLQ (Below lower limit of accurate quantification (<0.36 μg equivalents/g))
Concentration of radioactivity in Fat: brown [2, 3]: 0.59 μg equivalents/g
Concentration of radioactivity in Fat: white [2, 3]: 0.38 μg equivalents/g
Concentration of radioactivity in Forestomach mucosa [2, 3]: 0.52 μg equivalents/g
Concentration of radioactivity in Glandular stomach mucosa [2, 3]: 1.13 μg equivalents/g
Concentration of radioactivity in Harderian gland [2, 3]: 0.46 μg equivalents/g
Concentration of radioactivity in Kidney: cortex [2, 3]: 16.30 μg equivalents/g
Concentration of radioactivity in Kidney: medulla [2, 3]: 10.10 μg equivalents/g
Concentration of radioactivity in Kidney: whole [2, 3]: 13.30 μg equivalents/g
Concentration of radioactivity in Large intestine contents [2, 3]: BLQ (Below lower limit of accurate quantification (<0.36 μg equivalents/g))
Concentration of radioactivity in Large intestine mucosa [2, 3]: 0.80 μg equivalents/g
Concentration of radioactivity in Liver [2, 3]: 58.60 μg equivalents/g
Concentration of radioactivity in Lung [2, 3]: 96.70 μg equivalents/g
Concentration of radioactivity in Lymph node [2, 3]: 1.13 μg equivalents/g
Concentration of radioactivity in Muscle [2, 3]: 0.52 μg equivalents/g
Concentration of radioactivity in Myocardium [2, 3]: 1.25 μg equivalents/g
Concentration of radioactivity in Pancreas [2, 3]: 1.71 μg equivalents/g
Concentration of radioactivity in Pituitary gland [2, 3]: 2.21 μg equivalents/g
Concentration of radioactivity in Prostate gland [2, 3]: 0.41 μg equivalents/g
Concentration of radioactivity in Salivary gland [2, 3]: 1.09 μg equivalents/g
Concentration of radioactivity in Skin [2, 3]: 0.48 μg equivalents/g
Concentration of radioactivity in Small intestine contents [2, 3]: BLQ (Below lower limit of accurate quantification (<0.36 μg equivalents/g))
Concentration of radioactivity in Small intestine mucosa [2, 3]: 0.54 μg equivalents/g
Concentration of radioactivity in Spinal cord [2, 3]: BLQ (Below lower limit of accurate quantification (<0.36 μg equivalents/g))
Concentration of radioactivity in Spleen: red pulp [2, 3]: 15.40 μg equivalents/g
Concentration of radioactivity in Spleen: white pulp [2, 3]: 8.70 μg equivalents/g
Concentration of radioactivity in Spleen: whole [2, 3]: 55.80 μg equivalents/g
Concentration of radioactivity in Stomach contents [2, 3]: BLQ (Below lower limit of accurate quantification (<0.36 μg equivalents/g))
Concentration of radioactivity in Testis [2, 3]: BLQ (Below lower limit of accurate quantification (<0.36 μg equivalents/g))
Concentration of radioactivity in Thymus [2, 3]: 0.45 μg equivalents/g
Concentration of radioactivity in Thyroid gland [2, 3]: 1.66 μg equivalents/g
Concentration of radioactivity in Urinary bladder contents [2, 3]: 67.50 μg equivalents/g
Concentration of radioactivity in Urinary bladder wall [2, 3]: 0.69 μg equivalents/g
Concentration of radioactivity in Adrenal gland [2, 4]: 5.33 μg equivalents/g
Concentration of radioactivity in Blood: residual cardiac [2, 4]: 0.82 μg equivalents/g
Concentration of radioactivity in Bone [2, 4]: BLQ (Below lower limit of accurate quantification (<0.36 μg equivalents/g))
Concentration of radioactivity in Bone marror [2, 4]: 4.40 μg equivalents/g
Concentration of radioactivity in Brain [2, 4]: BLQ (Below lower limit of accurate quantification (<0.36 μg equivalents/g))
Concentration of radioactivity in Caecum contents [2, 4]: BLQ (Below lower limit of accurate quantification (<0.36 μg equivalents/g))
